Measurements taken from EP2792354A2, “COMPOSITION OF […] ACUTE AND CHRONIC HEPATIC ENCE[…] METHOD FOR TREATING ACUTE AND CHRONIC HEPATIC ENCEPHALOPATHY” (Obshchestvo S Ogranichennoj Otvetstvennostju …, priority 2011, dated 2012).

Key:
[1] = test system: acute HE, induced by ammonia injection in mice; experiment: CCl4 pretreatment 24 hours before lethal dose of NH4Cl (preconditioning), animal survival; assay type: in vivo; conditions: CCl4 2 ml/kg wt 24 hours before NH4Cl LD100+; NaCl instead of protector
Procedure: Table 1. […] Introduction of various doses of NH4 (12-14 mmol / kg) at 24 hours after administration of these toxins, can cause the development of acute HE and death of most or all animals. However, this effect depends on the dose used toxins CCl4. It can be seen that low doses of CCl4 (2ml/kg), being administered to intact animals , results in almost total protection against the lethal dose of NH4, resulting in the survival of 80 % of treated animals, i.e. there is the effect of preconditioning.

[2] = type 2 diabetes (D2) mice, CCl4, injections 3 days; alive animals
Procedure: In the experiments, male albino mice weighing 20 - 35 g after 12 hours of fasting. • 1. […] The recommended classification of the stages of HE for laboratory animals was used (116). • 2.1 The models of acute liver failure , resulting in necrosis and fatty degeneration of the liver cells due to oxidative stress , by introducing :CCl4 (2 - 4ml/kg subcutaneously or i.p.); acetaminophen-AAF (300 - 500mg/kg i.p.) or thioacetamide (TAA , 300 - 500mg / kg i.p.), in accordance with known data (103,104,116-118). […] Control the level of glucose, insulin , ALT , bilirubin, glycerol, triglycerides and fatty acids in the blood and in the liver, histological examination of the liver was carried out. • 2.2.2 The model of type 2 diabetes, according to the data of (115), in which after 1 - 2 months of feeding fat, animals were injected i.p. 50mg/kg of streptozotocin (to suppress the activity of β-cells) and then 15 days later , after controlling for the main indicators of the blood ,were used in the experiments.
The comparison of the efficacy of compositions ∑3 and LoLa on the alive diabetic animals treated with CCL4 and protectors used (according to pp.4-6 of Tab.2)

ClC(Cl)(Cl)Cl [CCl4]
% survival [1]: 80%

[Cl-].[Na+] [NaCl]
AAT plasma [2]: 1540±350 U/L
Glucose Plasma [2]: 13,1±0,8 mMol
LCFA Plasma [2]: 1,55±0,28 mMol
